Marks after values point to notes of the source that are not given here.

One assay concerns the target human μ opioid receptor (Homo sapiens, UniProt P35372). Format: biochemical.
Assay [1] concerns rats. The note with it: rat, cited from earlier work.
For assay [2] the following is noted: sc administration; cited from earlier work.
The subject of another assay is κ opioid receptor. The note with it: third value of μ:δ:κ; cited from earlier work.
The subject of another assay is δ opioid receptor. The following applies: second value of μ:δ:κ; cited from earlier work.
For the next assay, the system named is μ opioid receptor. The note with it: first value of μ:δ:κ; cited from earlier work.
The test system of assay [3] is rats. The assay is described as follows: Tail-flick test in the rat after sc administration. The note with it: pair 15 vs 16. The format is in vivo.

Sequence of human μ opioid receptor (P35372 whole entry): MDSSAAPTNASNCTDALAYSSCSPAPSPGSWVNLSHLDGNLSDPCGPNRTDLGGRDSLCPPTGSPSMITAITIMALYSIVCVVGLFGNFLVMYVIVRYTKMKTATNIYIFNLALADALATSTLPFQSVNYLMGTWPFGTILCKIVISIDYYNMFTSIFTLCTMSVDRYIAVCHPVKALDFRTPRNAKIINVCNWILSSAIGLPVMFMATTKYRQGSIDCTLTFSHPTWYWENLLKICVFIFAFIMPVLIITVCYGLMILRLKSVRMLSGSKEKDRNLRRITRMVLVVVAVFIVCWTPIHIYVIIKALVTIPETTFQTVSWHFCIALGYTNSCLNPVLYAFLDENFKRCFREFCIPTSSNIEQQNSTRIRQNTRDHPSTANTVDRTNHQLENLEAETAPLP

Turning to `Cl.Cl.O=C(O)CN[C@H]1CC[C@@]2(OCCCc3ccccc3)[C@H]3Cc4ccc(O)c5c4[C@@]2(CCN3CC2CC2)[C@H]1O5` [Compound 17, [[17-Cyclopropylmethyl-4,5α-epoxy-3-hydroxy-14β-[(3-phenylpropyl)oxy]morphinan-6α-yl]amino]acetic Acid Dihydrochloride], at human μ opioid receptor, the “functional character at the μ receptor” value is “highly potent partial agonists”.
`CO[C@@]12CC[C@@H](NCC(=O)O)[C@@H]3Oc4c(O)ccc5c4[C@@]31CCN(C)[C@@H]2C5` [Compound 10, 2-[(4,5α-Epoxy-3-hydroxy-14β-methoxy-17-methylmorphinan-6β-yl)amino] acetic Acid]: in the assay on rats [1], the “ED50 (nmol/kg, sc), time after drug administration 0.5 h” value is on record as 50.8 nmol/kg; the “ED50 (nmol/kg, sc), time after drug administration 1 h” value is listed as 29.0 ^c nmol/kg; the “ED50 (nmol/kg, sc), time after drug administration 2 h” value is given as 43.3 nmol/kg. Moreover, the “antinociceptive potency lower than that of 14-O-methyloxymorphone (1)” value in assay [2] is 2 fold.
`CO[C@@]12CC[C@H](NCC(=O)O)[C@@H]3Oc4c(O)ccc5c4[C@@]31CCN(C)[C@@H]2C5` [Compound 9]: in the assay on rats [1], the “ED50 (nmol/kg, sc), time after drug administration 0.5 h” value is on record as 137 nmol/kg; the “ED50 (nmol/kg, sc), time after drug administration 1 h” value was 58.5 ^c nmol/kg; the “ED50 (nmol/kg, sc), time after drug administration 2 h” value is 143 nmol/kg. Further, the “ED50 (nmol/kg, sc), time after drug administration 3 h” value in the assay on rats [1] (3 h) is 437 nmol/kg.
Consider `Cl.Cl.O=C(O)CN[C@@H]1CC[C@@]2(OCCCc3ccccc3)[C@H]3Cc4ccc(O)c5c4[C@@]2(CCN3CC2CC2)[C@H]1O5` [Compound 18, [[17-Cyclopropylmethyl-4,5α-epoxy-3-hydroxy-14β-[(3-phenylpropyl)oxy]morphinan-6β-yl]amino]acetic Acid Dihydrochloride], for which the “functional character at the μ receptor” value at human μ opioid receptor is reported as “highly potent partial agonists”.
Take `O=C1CC[C@@]2(O)[C@H]3Cc4ccc(O)c5c4[C@@]2(CCN3CC2CC2)[C@H]1O5` [naltrexone]: in the assay on κ opioid receptor, the “binding affinity κ” value is 0.40. Moreover, in the assay on δ opioid receptor, the “binding affinity δ” value was 8.70. Besides, in the assay with μ opioid receptor, the “binding affinity μ” value is recorded as 0.20.
Regarding `CC(C)(C)OC(=O)CN[C@@H]1CC[C@@]2(OCCCc3ccccc3)[C@H]3Cc4ccc(O)c5c4[C@@]2(CCN3CC2CC2)[C@H]1O5` [Compound 16], the “difference in the potency between α and β epimers” value with rats [3] came out at 13 fold.

Source of the values: PMC3041239 (Journal of Medicinal Chemistry, 2011).
